SMILES strings stand for the structures.

T1 sequence (Q15858 whole entry): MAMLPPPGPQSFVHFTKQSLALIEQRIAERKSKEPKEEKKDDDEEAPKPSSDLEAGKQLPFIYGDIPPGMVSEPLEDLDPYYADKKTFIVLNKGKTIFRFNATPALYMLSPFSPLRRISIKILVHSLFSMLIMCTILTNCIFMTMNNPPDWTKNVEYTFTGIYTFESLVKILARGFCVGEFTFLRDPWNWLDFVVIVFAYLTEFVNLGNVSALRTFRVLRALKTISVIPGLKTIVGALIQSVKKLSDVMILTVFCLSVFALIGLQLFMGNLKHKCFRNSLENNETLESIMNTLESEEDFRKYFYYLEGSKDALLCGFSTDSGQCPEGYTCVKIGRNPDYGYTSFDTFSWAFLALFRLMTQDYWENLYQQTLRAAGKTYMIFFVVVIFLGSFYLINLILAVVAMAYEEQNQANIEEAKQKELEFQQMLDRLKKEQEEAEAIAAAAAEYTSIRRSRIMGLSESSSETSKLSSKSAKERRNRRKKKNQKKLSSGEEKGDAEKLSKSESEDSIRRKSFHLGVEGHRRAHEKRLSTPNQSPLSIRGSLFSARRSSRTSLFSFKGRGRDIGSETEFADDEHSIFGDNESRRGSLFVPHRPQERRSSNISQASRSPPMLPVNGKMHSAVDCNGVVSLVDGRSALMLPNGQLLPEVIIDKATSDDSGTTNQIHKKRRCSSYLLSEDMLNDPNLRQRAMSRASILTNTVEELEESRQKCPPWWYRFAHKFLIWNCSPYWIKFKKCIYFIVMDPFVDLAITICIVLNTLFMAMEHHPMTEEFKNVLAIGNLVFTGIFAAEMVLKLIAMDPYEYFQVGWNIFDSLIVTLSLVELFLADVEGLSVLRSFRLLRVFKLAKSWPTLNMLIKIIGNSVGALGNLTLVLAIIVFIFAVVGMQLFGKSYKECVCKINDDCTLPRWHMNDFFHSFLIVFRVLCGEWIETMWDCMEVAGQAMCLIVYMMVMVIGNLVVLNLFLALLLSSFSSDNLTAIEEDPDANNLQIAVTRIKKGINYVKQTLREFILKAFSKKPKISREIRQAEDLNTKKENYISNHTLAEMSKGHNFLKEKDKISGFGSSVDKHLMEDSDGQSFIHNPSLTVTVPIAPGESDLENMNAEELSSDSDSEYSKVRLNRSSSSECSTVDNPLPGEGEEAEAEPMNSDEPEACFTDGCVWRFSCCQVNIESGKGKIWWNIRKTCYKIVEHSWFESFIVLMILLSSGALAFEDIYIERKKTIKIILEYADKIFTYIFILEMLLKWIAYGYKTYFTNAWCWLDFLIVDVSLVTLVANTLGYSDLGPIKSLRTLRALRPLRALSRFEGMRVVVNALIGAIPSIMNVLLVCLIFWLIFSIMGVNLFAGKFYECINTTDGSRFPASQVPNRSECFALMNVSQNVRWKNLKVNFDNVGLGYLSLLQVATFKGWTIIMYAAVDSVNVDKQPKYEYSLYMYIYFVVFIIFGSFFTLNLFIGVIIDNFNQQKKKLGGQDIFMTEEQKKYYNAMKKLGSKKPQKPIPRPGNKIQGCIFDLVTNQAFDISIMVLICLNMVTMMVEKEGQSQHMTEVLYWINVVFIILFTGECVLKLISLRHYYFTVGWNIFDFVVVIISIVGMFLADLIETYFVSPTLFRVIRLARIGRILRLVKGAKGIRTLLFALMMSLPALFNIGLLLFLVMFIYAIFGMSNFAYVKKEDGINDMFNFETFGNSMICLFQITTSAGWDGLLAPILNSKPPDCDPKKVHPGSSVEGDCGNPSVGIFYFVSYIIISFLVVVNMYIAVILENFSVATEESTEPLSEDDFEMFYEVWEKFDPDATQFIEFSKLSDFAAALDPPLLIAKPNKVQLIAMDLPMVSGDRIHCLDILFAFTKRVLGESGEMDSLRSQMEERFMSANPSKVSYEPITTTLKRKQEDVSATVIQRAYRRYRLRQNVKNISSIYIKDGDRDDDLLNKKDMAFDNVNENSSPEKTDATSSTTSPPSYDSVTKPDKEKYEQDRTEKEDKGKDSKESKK

The first assay concerns the target T1, human Nav1.7 (Homo sapiens, UniProt Q15858).
T1 construct: expressed in transfected cells; host or cells: HEK 293
As to the kind of experiment: IonWorks Quattro automated patch-clamp, inactivated state block of Nav1.7.
Settings: not given
It is filed as cell-based. The protocol:
Compounds were tested on human Nav1.7 and Nav1.5 channels stably expressed in HEK 293 cells. […] Cells were sealed on a planar substrate using the Population Patch […] (PPC) technology. Electrical access was obtained using both nystatin and amphotericin. A double-pulse protocol was used for the determination of IC50 values for inactivated state block. Nav1.7 and Nav1.5 expressing cells were voltage clamped at −100 mV and −110 mV, respectively. A depolarizing prepulse to −10 mV (Nav1.7) or −30 mV (Nav1.5) for 1000 ms followed by a 10 ms repolarization to −100 mV (Nav1.7) or −110 mV (Nav1.5) was given to generate fractional channel inactivation of 50%, followed by a 10 ms test pulse to −10 mV (Nav1.7) or −30 mV (Nav1.5) to measure peak current in control conditions and after compound addition. The following recording solutions were used (mM). External: 150 NaCl, 2 CaCl2, 5 KCl, 1 Mg Cl2, 10 HEPES, 12 Dextrose; internal: 120 CsF, 30 CsCl, 10 EGTA, 5 HEPES, 5 NaF, 2 MgCl2.
For all electrophysiology experiments, offline analysis was used to determine percent inhibition as a function of drug concentration. IC50 values were determined by fitting to the Hill equation.
In general, IC50 refers to the concentration at which inhibition is half-maximal. In turn, `CC(CCCNc1cc(F)c(S(=O)(=O)Nc2nccs2)cc1Cl)NC[C@@H]1CCCN1` (single isomer, unassigned) showed an IC50 of 0.012 µM.

The same assay, now with this note: channels stably expressed in HEK 293 cells; double-pulse protocol, inactivated state block; read-out: potency for the Nav 1.7 sodium ion channel (IC50, as measured by IonWorks).
For `CC(CCCNc1cc(F)c(S(=O)(=O)Nc2nccs2)cc1Cl)NC[C@@H]1CCCN1` (mixture of isomers), the IC50 came to 0.011 µM.

Regarding `O=S(=O)(Nc1nccs1)c1cc(Cl)c(NCCCCNC[C@H]2CCCCN2)cc1F` [Ex 1-05, 5-chloro-2-fluoro-4-[(4-{[(2R)-piperidin-2-ylmethyl]amino}butyl)amino]-N-1,3-thiazol-2-ylbenzenesulfonamide], the 50% inhibitory concentration (IC50) was determined as 0.01 µM.

`O=S(=O)(Nc1nccs1)c1cc(Cl)c(NCCCCNC[C@@H]2CCCN2)cc1F` [Ex 1-06, 5-chloro-2-fluoro-4-[(4-{[(2S)-pyrrolidin-2-yl-methyl]amino}butyl)-amino]-N-1,3-thiazol-2-yl-benzenesulfonamide]: the IC50 amounted to 0.015 µM.

For the compound `CC(C)(CN)NCCCCNc1cc(F)c(S(=O)(=O)Nc2nccs2)cc1Cl` [Ex 1-10, 4-({4-[(2-amino-1,1-dimethylethyl)amino]-butyl}amino)-5-chloro-2-fluoro-N-1,3-thiazol-2-yl-benzenesulfonamide], the concentration for half-maximal inhibition (IC50) came out at 0.028 µM.

For `CN(CCN)CCCCNc1cc(F)c(S(=O)(=O)Nc2nccs2)cc1Cl` [Ex 1-15, 4-({4-[(2-aminoethyl) (methyl)amino]butyl}amino)-5-chloro-2-fluoro-N-1,3-thiazol-2-ylbenzenesulfonamide], the IC50 was 0.029 µM.

For `N[C@H]1CCCC[C@H]1NCCCCNc1cc(F)c(S(=O)(=O)Nc2nccs2)cc1Cl` [Ex 1-30, 4-[(4-{[(1R,2S)-2-aminocyclohexyl]amino}butyl)amino]-5-chloro-2-fluoro-N-1,3-thiazol-2-ylbenzenesulfonamide], the concentration for half-maximal inhibition (IC50) came out at 0.019 µM.

In the case of `O=S(=O)(Nc1nccs1)c1cc(Cl)c(NCCCCNCC2CNC2)cc1F` [Ex 5-03, 4-((4-((azetidin-3-ylmethyl)amino)butyl)amino)-5-chloro-2-fluoro-N-(thiazol-2-yl)benzenesulfonamide], the IC50 was 0.034 µM.

Consider `CNCCNCCCCNc1cc(F)c(S(=O)(=O)Nc2nccs2)cc1Cl` [Ex 5-04], for which the 50% inhibitory concentration (IC50) amounted to 0.012 µM.

For the compound `O=S(=O)(Nc1nccs1)c1cc(Cl)c(NCCCCNC[C@H]2CCCN2)cc1F` [Ex 7-6, (R)-5-chloro-2-fluoro-4-((4-((pyrrolidin-2-ylmethyl)amino)butyl)amino)-N-(thiazol-2-yl)benzenesulfonamide], the 50% inhibitory concentration (IC50) was 0.034 µM.

As to `O=S(=O)(Nc1ncns1)c1cc(Cl)c(NCCCCNC[C@@H]2CCCN2)cc1F` [Ex 7-8, 5-chloro-2-fluoro-4-[(4-{[(2S)-pyrrolidin-2-ylmethyl]amino}butyl)amino]-N-1,2,4-thiadiazol-5-ylbenzenesulfonamide], the IC50 came to 0.01 µM.

`O=S(=O)(Nc1ncc(Cl)s1)c1cc(Cl)c(NCCCCNC[C@@H]2CCCN2)cc1F` [Ex 7-9, 5-chloro-N-(5-chloro-1,3-thiazol-2-yl)-2-fluoro-4-[(4-{[(2S)-pyrrolidin-2-ylmethyl]amino}butyl)amino]benzenesulfonamide]: the IC50 is 0.029 µM.

For the compound `O=S(=O)(Nc1nccs1)c1cc(Br)c(NCCCCNC[C@@H]2CCCN2)cc1F` [Ex 7-10, 5-bromo-2-fluoro-4-[(4-{[(2S)-pyrrolidin-2-ylmethyl]amino}butyl)amino]-N-1,3-thiazol-2-ylbenzenesulfonamide], the 50% inhibitory concentration (IC50) came to 0.016 µM.

Consider `O=S(=O)(Nc1ncc(F)s1)c1cc(Cl)c(NCCCCNC[C@@H]2CCCN2)cc1F` [Ex 7-11, 5-chloro-2-fluoro-N-(5-fluoro-1,3-thiazol-2-yl)-4-[(4-{[(2S)-pyrrolidin-2-ylmethyl]amino}butyl)amino]benzenesulfonamide], for which the 50% inhibitory concentration (IC50) was found to be 0.0099 µM.

As to `C[C@@H]1CN[C@H](CNCCCCNc2cc(F)c(S(=O)(=O)Nc3nccs3)cc2Cl)C1` [Ex 8-09, 5-chloro-2-fluoro-4-{[4-({[(2S,4S)-4-methylpyrrolidin-2-yl]-methyl}amino)butyl]amino}-N-1,3-thiazol-2-yl-benzenesulfonamide], the IC50 came to 0.018 µM.

`C[C@H]1CC[C@@H](CNCCCCNc2cc(F)c(S(=O)(=O)Nc3nccs3)cc2Cl)N1` [Ex 8-10, 5-chloro-2-fluoro-4-{[4-({[(2S,5S)-5-methylpyrrolidin-2-yl]-methyl}amino)butyl]amino}-N-1,3-thiazol-2-yl-benzenesulfonamide]: the IC50 was determined as 0.016 µM.

With `O=S(=O)(Nc1nccs1)c1cc(Cl)c(NCCCCNC[C@@H]2C[C@H](C(F)(F)F)CN2)cc1F` [Ex 8-12, 5-chloro-2-fluoro-N-1,3-thiazol-2-yl-4-{[4-({[(2S,4S)-4-(trifluoromethyl)-pyrrolidin-2-yl]methyl}amino)butyl]amino}benzenesulfonamide], the IC50 was 0.021 µM.

Consider `O=S(=O)(Nc1ncns1)c1cc(Cl)c(NCCCCNC[C@H]2CCN2)cc1F` [Ex 13-02, 4-[(4-{[(2R)-azetidin-2-yl-methyl]-amino}butyl)amino]-5-chloro-2-fluoro-N-1,2,4-thiadiazol-5-yl-benzene-sulfonamide], for which the IC50 was 0.014 µM.

For `O=S(=O)(Nc1ncns1)c1cc(Cl)c(NCCCCNC[C@@H]2CCN2)cc1F` [Ex 14-04, 4-[(4-{[(2S)-azetidin-2-yl-methyl]-amino}butyl)amino]-5-chloro-2-fluoro-N-1,2,4-thiadiazol-5-ylbenzene-sulfonamide], the IC50 amounted to 0.014 µM.

As for `C[C@H](N)CNCCCCNc1cc(F)c(S(=O)(=O)Nc2ncns2)cc1Cl` [Ex 15-05, 4-[(4-{[(2S)-2-aminopropyl]amino}butyl)amino]-5-chloro-2-fluoro-N-1,2,4-thiadiazol-5-ylbenzenesulfonamide], the IC50 was 0.012 µM.

On to `O=S(=O)(Nc1ncns1)c1cc(Cl)c(NCCCCNC2CNC2)cc1F` [Ex 16-01, 4-{[4-(azetidin-3-ylamino)-butyl]-amino}-5-chloro-2-fluoro-N-1,2,4-thiadiazol-5-ylbenzenesulfonamide], for which the 50% inhibitory concentration (IC50) was 0.015 µM.

For `O=S(=O)(Nc1ncc(F)s1)c1cc(Br)c(NCCCCNC[C@H]2CCCCN2)cc1F` [Ex 16-04, 5-bromo-2-fluoro-N-(5-fluoro-1,3-thiazol-2-yl)-4-[(4-{[(2R)-piperidin-2-ylmethyl]amino}-butyl]amino]benzene-sulfonamide], the IC50 came out at 0.011 µM.

As for `C[C@H](CN)NCCCCNc1cc(F)c(S(=O)(=O)Nc2nccs2)cc1Cl` [Ex 16-08, 4-[(4-{[(1R)-2-amino-1-methylethyl]-amino}butyl)-amino]-5-chloro-2-fluoro-N-1,3-thiazol-2-ylbenzenesulfonamide], the IC50 worked out at 0.015 µM.

As for `O=S(=O)(Nc1ncns1)c1cc(Cl)c(NCCCCNC[C@H]2CCCCN2)cc1F` [Ex 16-15, 5-chloro-2-fluoro-4-[(4-{[(2R)-piperidin-2-yl-methyl]amino}butyl)-amino]-N-1,2,4-thiadiazol-5-yl-benzenesulfonamide], the 50% inhibitory concentration (IC50) came out at 0.0051 µM.

As to `O=S(=O)(Nc1ncc(F)s1)c1cc(Cl)c(NCCCCNCC[C@H]2CCCN2)cc1F` [Ex 16-18, 5-chloro-2-fluoro-N-(5-fluoro-1,3-thiazol-2-yl)-4-{[4-({2-[(2R)-pyrrolidin-2yl]-ethyl}amino)butyl]-amino} benzenesulfonamide], the IC50 is 0.018 µM.

For the compound `O=S(=O)(Nc1ncns1)c1cc(Cl)c(NCCCCN[C@@H]2CCNC2)cc1F` [Ex 16-19, 5-chloro-2-fluoro-4-({4-[(3R)-pyrrolidin-3-ylamino]-butyl}amino)-N-1,2,4-thiadiazol-5-ylbenzene-sulfonamide], the IC50 amounted to 0.011 µM.

As for `C[C@H](CCN)NCCCCNc1cc(F)c(S(=O)(=O)Nc2nccs2)cc1Cl` [Ex 16-26, 4-[(4-{[(1R)-3-amino-1-methylpropyl]amino}butyl)amino]-5-chloro-2-fluoro-N-1,3-thiazol-2-ylbenzene-sulfonamide], the half-inhibitory concentration (IC50) was 0.028 µM.

On to `C[C@H](CCN)NCCCCNc1cc(F)c(S(=O)(=O)Nc2ncns2)cc1Cl` [Ex 16-29, 4-[(4-{[(1R)-3-amino-1-methylpropyl]amino}butyl)-amino]-5-chloro-2-fluoro-N-1,2,4-thiadiazol-5-yl-benzenesulfonamide], for which the concentration for half-maximal inhibition (IC50) was 0.056 µM.

Turning to `NCCNCCCCNc1cc(F)c(S(=O)(=O)Nc2ncns2)cc1Cl` [Ex 16-33, 4-({4-[(2-aminoethyl)-amino]butyl}amino)-5-chloro-2-fluoro-N-1,2,4-thiadiazol-5-ylbenzene-sulfonamide], the 50% inhibitory concentration (IC50) came out at 0.012 µM.

On to `C[C@@H](N)CCNCCCCNc1cc(F)c(S(=O)(=O)Nc2nccs2)cc1Cl` [Ex 16-34, 4-[(4-{[(3R)-3-aminobutyl]-amino}butyl)amino]-5-chloro-2-fluoro-N-1,3-thiazol-2-ylbenzene-sulfonamide], for which the IC50 came out at 0.029 µM.

On to `NCCCNCCCCNc1cc(F)c(S(=O)(=O)Nc2ncc(F)s2)cc1Cl` [Ex 16-35, 4-({4[(3-aminopropyl)amino]-butyl}amino)-5-chloro-2-fluoro-N-(5-fluoro-1,3-thiazol-2-yl)benzene-sulfonamide], for which the IC50 came out at 0.014 µM.

`O=S(=O)(Nc1ncc(F)s1)c1cc(Br)c(NCCCCN[C@@H]2CCNC2)cc1F` [Ex 16-36, 5-bromo-2-fluoro-N-(5-fluoro-1,3-thiazol-2-yl)-4-({4-[(3R)-pyrrolidin-3-yl-amino]butyl}amino) benzene-sulfonamide]: the IC50 was 0.015 µM.

Values taken from patent US10519147B2 (Merck Sharp & Dohme Corp., priority 2015, dated 2019).
